Legend:
[1] = saturation concentrations of ammonium glyphosate in different aqueous methanol solutions; type: physicochemical; conditions: 30° C.
Source text: The amount of gaseous ammonia introduced is 1.01-1.5 times by mole as that of glyphosate added. When the ammonia is not enough, the reaction will not be carried out completely to cause the product having relatively more glyphosate, and thus a part of the water-soluble solid ammonium glyphosate may not be dissolved due to very low the solubility of glyphosate in water. If the ammonia is introduced in excess, relatively more free ammonia will remain in the system, thereby the ammonia will escape in subsequent processes to result in the environmental pollution. A relatively simple method for judging the end point of the reaction is to measure the pH of the reaction system. The inventor believes that the pH should be kept at 5-8. The solubility of ammonium glyphosate varies with the concentration of the aqueous methanol solution, the higher the concentration of aqueous methanol solution is, the lower the solubility of ammonium glyphosate is. The saturation concentrations of ammonium glyphosate in different concentrations of the aqueous methanol solution at 30° C. are listed in Table 1.

[2] = concentration of aqueous solutions of ammonium glyphosate salt at room temperature; type: physicochemical; conditions: water
Source text: Wherein m is a positive integer from 1 to 3, the ammonium cation may link to the hydroxyl which is bonded with a carbonyl or a phosphoryl. As for the single molecule, m equals 1-3. The generally used ammonium glyphosate salt is a mono-ammonium salt, namely, m equals 1. However, it may not be deemed simply that the ammonium glyphosate salt obtained in practical production has m just equal to a positive integer, but a value in the range of 0.8-1.3. These substances have very high solubility in water and the concentration of their aqueous solutions may be more than 20% at room temperature. However, they have very low solubility in such organic solvents that are completely miscible with any proportion of water or have a relatively high solubility in water. Thus, after the reaction is ended, such organic solvent(s) is(are) added to the reaction solution to form a homogeneous solution with water in the system, thereby substantially decreasing the solubility of the ammonium glyphosate salt therein and crystallizing the salt out. Such solvents may include, or may be, alcohols and acetals, etc. or a mixture of two or more solvents. The alcohols may include monobase alcohols having 1-4 carbon atoms. It is preferred to use methanol, ethanol, propanol, butanol and methylal in terms of cost effective, which can be used alone or as a mixture of thereof. […]

[3] = 25° C.; cited from earlier work

Row | SMILES | Saturation concentration (w/w) % ([1]; content of methanol 5 (w/w) %, aqueous methanol solution) | Saturation concentration (w/w) % ([1]; content of methanol 20 (w/w) %, aqueous methanol solution) | Saturation concentration (w/w) % ([1]; content of methanol 40 (w/w) %, aqueous methanol solution) | Saturation concentration (w/w) % ([1]; content of methanol 60 (w/w) %, aqueous methanol solution) | Saturation concentration (w/w) % ([1]; content of methanol 80 (w/w) %, aqueous methanol solution) | Saturation concentration (w/w) % ([1]; content of methanol 100 (w/w) %) | concentration of aqueous solution [2] | solubility of glyphosate in water [3] [g per 100 g water]
1 | N.O=C(O)CNCP(=O)(O)O [ammonium glyphosate] | 18.2 (w/w) % | 8.9 (w/w) % | 4.3 (w/w) % | 1.5 (w/w) % | 0.9 (w/w) % | 0.6 (w/w) % | more than 20% | 
2 | O=C(O)CNCP(=O)(O)O [glyphosate, N-phosphonomethyl glycine] |  |  |  |  |  |  |  | 1.2
